These results are taken from patent US8921397B2, “Benzofurane-piperidine compounds” (Hoffmann-La Roche Inc., priority 2011, dated 2014).

In data set [1] the target is human 5-HT2A receptor (Homo sapiens (Human), UniProt P28223). The experiment in a line: Radioligand binding ([3H]-ketanserin) to human 5-HT2A receptor, HEK293 EBNA membranes. The following applies: HEK293 EBNA cells expressing human 5-HT2A receptor. In outline: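 Membranes from HEK293 EBNA cells transiently expressing the human receptor were incubated 1 h at RT with ~0.7 nM (D2) or 0.5 nM (D3) [3H]-spiperone, or 1.1 nM [3H]-ketanserin (5-HT2A), plus ten compound concentrations (10 μM–0.1 nM). Nonspecific binding was set with 10 μM spiperone; Ki was derived from IC50 via Cheng-Prusoff.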
human 5-HT2A receptor, sequence (P28223 whole entry): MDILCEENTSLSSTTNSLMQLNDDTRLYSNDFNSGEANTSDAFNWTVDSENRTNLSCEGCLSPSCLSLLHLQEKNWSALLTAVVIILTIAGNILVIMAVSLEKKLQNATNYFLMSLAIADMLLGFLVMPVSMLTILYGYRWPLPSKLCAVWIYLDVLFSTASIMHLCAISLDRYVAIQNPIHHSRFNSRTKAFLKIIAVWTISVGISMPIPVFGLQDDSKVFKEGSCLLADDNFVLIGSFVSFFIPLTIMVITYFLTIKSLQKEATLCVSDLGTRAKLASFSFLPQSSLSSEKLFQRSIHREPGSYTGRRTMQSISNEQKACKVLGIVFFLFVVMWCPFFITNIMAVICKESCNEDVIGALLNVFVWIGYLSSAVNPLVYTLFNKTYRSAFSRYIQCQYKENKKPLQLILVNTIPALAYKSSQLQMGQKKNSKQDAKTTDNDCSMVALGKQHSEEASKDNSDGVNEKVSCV

Data set [2] has as its target human D3 receptor (Homo sapiens (Human), UniProt P35462). The experiment in a line: Radioligand binding ([3H]-spiperone) to human D3 receptor, HEK293 EBNA membranes. The following applies: HEK293 EBNA cells expressing human D3 receptor. In outline:
(§1)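 Membranes from transiently transfected HEK293 EBNA cells (~7.5 μg protein/well) were incubated 1 h at RT with [3H]-spiperone (~0.7 nM for D2, 0.5 nM for D3) and ten compound concentrations (10 μM–0.1 nM) in Tris/NaCl/MgCl2/CaCl2 buffer pH 7.4. Filtration and scintillation counting, nonspecific with 10 μM spiperone; Ki via Cheng-Prusoff.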

Data set [3] concerns the target human D2 receptor (Homo sapiens (Human), UniProt P14416). The experiment in a line: Radioligand binding ([3H]-spiperone) to human D2 receptor, HEK293 EBNA membranes. The following applies: HEK293 EBNA cells expressing human D2 receptor. The procedure, abridged:
as §1

The melting point is the temperature, or range, at which the solid turns liquid. In general, Ki refers to a measure of affinity in units of concentration, obtained from inhibition or displacement.

human D2 receptor, sequence (P14416 whole entry): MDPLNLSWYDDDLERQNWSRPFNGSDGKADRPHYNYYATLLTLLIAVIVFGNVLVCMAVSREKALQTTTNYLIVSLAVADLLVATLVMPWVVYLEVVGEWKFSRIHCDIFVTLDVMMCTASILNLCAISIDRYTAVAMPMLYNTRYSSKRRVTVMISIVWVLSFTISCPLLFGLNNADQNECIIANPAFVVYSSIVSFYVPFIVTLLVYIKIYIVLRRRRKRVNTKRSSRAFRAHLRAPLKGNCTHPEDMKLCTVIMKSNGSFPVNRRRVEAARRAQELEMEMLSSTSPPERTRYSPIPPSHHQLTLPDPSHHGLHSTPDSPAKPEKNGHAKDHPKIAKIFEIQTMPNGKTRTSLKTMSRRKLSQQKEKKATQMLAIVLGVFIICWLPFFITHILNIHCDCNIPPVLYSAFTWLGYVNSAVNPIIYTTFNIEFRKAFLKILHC
human D3 receptor, sequence (P35462 whole entry): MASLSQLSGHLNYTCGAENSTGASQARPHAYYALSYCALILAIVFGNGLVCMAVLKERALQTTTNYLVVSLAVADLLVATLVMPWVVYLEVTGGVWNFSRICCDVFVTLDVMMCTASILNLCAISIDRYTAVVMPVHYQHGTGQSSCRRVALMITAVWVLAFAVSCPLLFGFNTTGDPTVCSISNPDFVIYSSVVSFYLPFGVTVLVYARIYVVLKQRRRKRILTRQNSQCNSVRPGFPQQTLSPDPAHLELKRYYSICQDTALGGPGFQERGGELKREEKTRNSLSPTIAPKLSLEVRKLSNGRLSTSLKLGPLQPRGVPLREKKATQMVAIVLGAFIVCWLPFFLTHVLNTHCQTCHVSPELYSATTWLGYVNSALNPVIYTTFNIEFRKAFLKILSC

Take `O=C(N[C@H]1CC[C@H](CCN2CCC(c3coc4ccccc34)CC2)CC1)c1ccc(Cl)cc1` [Example 49, trans-N-{4-[2-(4-Benzofuran-3-yl-piperidin-1-yl)-ethyl]-cyclohexyl}-4-chloro-benzamide]: the melting point was 203 °C. For the same compound, the Ki in data set [1] was 9.01 nM. The Ki in data set [2] was 3.22 nM. The Ki in data set [3] worked out at 25.8 nM.

Consider `O=C(N[C@H]1CC[C@H](CCN2CCC(c3coc4ccccc34)CC2)CC1)c1ccc(N2CCOCC2)cc1` [Example 13, trans-N-{4-[2-(4-Benzofuran-3-yl-piperidin-1-yl)-ethyl]-cyclohexyl}-4-morpholin-4-yl-benzamide], for which the melting point is 249 °C. Also, in data set [1], the inhibition constant (Ki) stood at 11.1 nM. The Ki in data set [2] worked out at 7.4 nM. In data set [3], the Ki was found to be 406 nM.

For the compound `COC(CC(=O)N[C@H]1CC[C@H](CCN2CCC(c3coc4ccccc34)CC2)CC1)OC` [Example 52, trans-N-{4-[2-(4-Benzofuran-3-yl-piperidin-1-yl)-ethyl]-cyclohexyl}-3,3-dimethoxy-propionamide], the melting point stood at 148 °C. In data set [1], the Ki was determined as 5.94 nM. The Ki in data set [2] is 1.46 nM. Further, the Ki in data set [3] is 48.9 nM.

In the case of `COCCC(=O)N[C@H]1CC[C@H](CCN2CCC(c3coc4ccccc34)CC2)CC1` [Example 2, trans-N-{4-[2-(4-Benzofuran-3-yl-piperidin-1-yl)-ethyl]-cyclohexyl}-3-methoxy-propionamide], the melting point came out at 136 °C. The Ki in data set [1] came out at 4.63 nM. Also, the Ki in data set [2] is 1.22 nM. In data set [3], the Ki amounted to 71.2 nM.

Turning to `CC(C)CC(=O)N[C@H]1CC[C@H](CCN2CCC(c3coc4ccccc34)CC2)CC1` [Example 15, trans-N-{4-[2-(4-Benzofuran-3-yl-piperidin-1-yl)-ethyl]-cyclohexyl}-3-methyl-butyramide], the melting point came out at 182 °C. Moreover, the Ki in data set [1] came out at 8.65 nM. Further, the Ki in data set [2] stood at 1.94 nM. Besides, in data set [3], the Ki was found to be 43.5 nM.

The compound `CS(=O)(=O)CC(=O)N[C@H]1CC[C@H](CCN2CCC(c3coc4ccccc34)CC2)CC1` [Example 7, trans-N-{4-[2-(4-Benzofuran-3-yl-piperidin-1-yl)-ethyl]-cyclohexyl}-2-methanesulfonyl-acetamide] gave a melting point of 187 °C. Besides, the Ki in data set [1] stood at 3.54 nM. For the same compound, the Ki in data set [2] is 1.45 nM. Also, the Ki in data set [3] worked out at 50.8 nM.

Turning to `CC(=O)N[C@H]1CC[C@H](CCN2CCC(c3coc4ccccc34)CC2)CC1` [Example 1, trans-N-{4-[2-(4-Benzofuran-3-yl-piperidin-1-yl)-ethyl]-cyclohexyl}-acetamide], the melting point stood at 162 °C. Also, in data set [1], the Ki was 5.08 nM. In data set [2], the Ki was determined as 1.08 nM. In addition, the Ki in data set [3] turned out to be 50.4 nM.

For the compound `O=C(N[C@H]1CC[C@H](CCN2CCC(c3coc4ccccc34)CC2)CC1)c1ccc(C2CCCCC2)cc1` [Example 82, trans-N-{4-[2-(4-Benzofuran-3-yl-piperidin-1-yl)-ethyl]-cyclohexyl}-4-cyclohexyl-benzamide], the melting point turned out to be 230 °C. Further, the Ki in data set [1] came to 5.81 nM. Also, in data set [2], the Ki was 41.3 nM. Besides, the “D2 Ki” value in data set [3] is on record as “inact”.

Consider `O=C(N[C@H]1CC[C@H](CCN2CCC(c3coc4ccccc34)CC2)CC1)c1ccc(-c2cccnc2)cc1` [Example 64, trans-N-{4-[2-(4-Benzofuran-3-yl-piperidin-1-yl)-ethyl]-cyclohexyl}-4-pyridin-3-yl-benzamide], for which the melting point came to 224 °C. Further, in data set [1], the Ki turned out to be 12.8 nM. The Ki in data set [2] was 4.55 nM. Also, the Ki in data set [3] was 16.7 nM.

`CS(=O)(=O)N[C@H]1CC[C@H](CCN2CCC(c3coc4ccccc34)CC2)CC1` [Example 36, trans-N-{4-[2-(4-Benzofuran-3-yl-piperidin-1-yl)-ethyl]-cyclohexyl}-methanesulfonamide] registered a melting point of 142 °C. In addition, in data set [1], the Ki was found to be 5.43 nM. Moreover, the Ki in data set [2] stood at 2.85 nM. Further, the inhibition constant (Ki) in data set [3] was 47.4 nM.

For the compound `O=C(CC1CCCO1)N[C@H]1CC[C@H](CCN2CCC(c3coc4ccccc34)CC2)CC1` (stereo partly drawn) [Example 29, trans-N-{4-[2-(4-Benzofuran-3-yl-piperidin-1-yl)-ethyl]-cyclohexyl}-2-(tetrahydro-furan-2-yl)-acetamide], the melting point was determined as 149 °C. Moreover, the Ki in data set [1] was 5.43 nM. Also, in data set [2], the Ki was found to be 2.75 nM. In data set [3], the Ki came to 52.9 nM.

`Cc1cc(CC(=O)N[C@H]2CC[C@H](CCN3CCC(c4coc5ccccc45)CC3)CC2)on1` [Example 10, trans-N-{4-[2-(4-Benzofuran-3-yl-piperidin-1-yl)-ethyl]-cyclohexyl}-2-(3-methyl-isoxazol-5-yl)-acetamide] showed a melting point of 165 °C. Besides, in data set [1], the Ki came to 7.71 nM. In data set [2], the Ki turned out to be 0.68 nM. Also, in data set [3], the Ki was 83.6 nM.

Take `O=C(N[C@H]1CC[C@H](CCN2CCC(c3coc4ccccc34)CC2)CC1)C1CC1(F)F` (stereo partly drawn) [Example 30, 2,2-Difluoro-cyclopropanecarboxylic acid trans-{4-[2-(4-benzofuran-3-yl-piperidin-1-yl)-ethyl]-cyclohexyl}-amide]: the melting point amounted to 189 °C. In addition, the Ki in data set [1] was 8.59 nM. Besides, the Ki in data set [2] is 3.53 nM. In addition, the Ki in data set [3] amounted to 28.1 nM.

On to `CS(=O)(=O)c1ccc(C(=O)N[C@H]2CC[C@H](CCN3CCC(c4coc5ccccc45)CC3)CC2)s1` [Example 75, 5-Methanesulfonyl-thiophene-2-carboxylic acid trans-{4-[2-(4-benzofuran-3-yl-piperidin-1-yl)-ethyl]-cyclohexyl}-amide], for which the melting point is 214 °C. The Ki in data set [1] stood at 7.85 nM. For the same compound, the Ki in data set [2] came out at 3.89 nM. The Ki in data set [3] was determined as 60.8 nM.

In turn, `CN(C)C(=O)CCC(=O)N[C@H]1CC[C@H](CCN2CCC(c3coc4ccccc34)CC2)CC1` [Example 42, trans-N-{4-[2-(4-Benzofuran-3-yl-piperidin-1-yl)-ethyl]-cyclohexyl}-N′,N′-dimethyl-succinamide] yielded a melting point of 167 °C. For the same compound, the Ki in data set [1] came out at 7.8 nM. In data set [2], the Ki worked out at 2.43 nM. Moreover, the Ki in data set [3] is 92.3 nM.

As to `O=C(N[C@H]1CC[C@H](CCN2CCC(c3coc4ccccc34)CC2)CC1)C12CC3CC(CC(C3)C1)C2` [Example 78, Adamantane-1-carboxylic acid trans-{4-[2-(4-benzofuran-3-yl-piperidin-1-yl)-ethyl]-cyclohexyl}-amide], the melting point turned out to be 200 °C. In data set [1], the Ki is 17.4 nM. Further, in data set [2], the Ki worked out at 12.7 nM. In addition, the Ki in data set [3] was found to be 129 nM.

With `O=C(N[C@H]1CC[C@H](CCN2CCC(c3coc4ccccc34)CC2)CC1)c1ccc(Cl)cc1Cl` [Example 87, trans-N-{4-[2-(4-Benzofuran-3-yl-piperidin-1-yl)-ethyl]-cyclohexyl}-2,4-dichloro-benzamide], the melting point came to 187 °C. In data set [1], the Ki was determined as 12.3 nM. Also, the Ki in data set [2] turned out to be 4.37 nM. Moreover, in data set [3], the Ki was 38.2 nM.
